Among the test systems are LXFL 529 NSCLC; DLD-1 colon; M19-MEL melanoma; RXF-631 renal; SN12K1 renal; P388/ADR leukemia; P388 leukemia.
Holding throughout (assay): NCI tumour cell line growth inhibition, 48 h

Molecules are shown by their SMILES.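 1) Cells in 96-well plates. 2) Compound, 48 h, 5 concentrations. 3) Linear interpolation between surrounding doses. 4) Unreached endpoint = highest concentration. TGI: concentration producing complete growth inhibition.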 A value given as a limit tells only on which side of the number the result lay.

In the case of `O=C1c2cc3c(cc2[C@@H]2C(O)[C@H]4O[C@H]4C4CCN1C42)OCO3` (some centres undefined), in the assay with LXFL 529 NSCLC, the TGI is greater than 37.5 µM.

`CCOC(=O)C(C(=O)OCC)c1cc(-c2cc3ccccc3o2)oc(=O)c1C#N`: the TGI with LXFL 529 NSCLC came out at 41.8 µM.

For `O=C(O)C1=C(CO)Oc2cc3c(cc2C1c1ccc2c(c1)OCO2)OCO3` (centres undefined), the TGI in the assay with DLD-1 colon, in the assay with M19-MEL melanoma and in the assay on RXF-631 renal was greater than 100 µM each time.

Take `O=P1(Oc2ccc(Cl)cc2Cl)Oc2cc3ccccc3cc2O1`: the TGI was greater than 100 µM in the assay with SN12K1 renal, greater than 100 µM in the assay with DLD-1 colon, 64.1 µM in the assay with P388/ADR leukemia and 32.6 µM in the assay on P388 leukemia.
